# Experimental data from US20090074815A1, “Immunomodulator Compounds as Vaccine Enhancers” (SCICLONE PHARMACEUTICALS, INC., priority 2005, published 2009).
# Read-outs that look alike come from different tables or passages of the source.
# Key:
# neutrophils = assay: Concentration and functional activity of neutrophils (phagocytosis, lysosomal activity, spontaneous and induced HCT test) before and after vaccination; format: in vivo, human
# [1] = system: IFN-γ production by OvA-stimulated splenocytes; assay: OvA-stimulated production of IFN-γ by splenocytes of OvA-immunized mice; format: in vivo; details: for activity at 0.0001 mg/kg / activity at 0.001 mg/kg / activity at 0.01 mg/kg: Mus musculus, Splenocyte, po, read-out: Production of IFN-γ by splenocytes, % (% of control)
# [2] = Group 2 (patients with infectious syndrome, hepatitis B vaccination with SCV-07), after vaccination, n = 16, M ± m
# [3] = OvA/Alum, 0.1 μg/kg per os, OvA 0 μg/ml
# [4] = OvA/Alum, 0.1 μg/kg per os, OvA 10 μg/ml
# [5] = OvA/Alum, 0.1 μg/kg per os, OvA 25 μg/ml
# [6] = OvA/Alum, 0.1 μg/kg per os, OvA 50 μg/ml
# [7] = OvA/Alum, 0.1 μg/kg per os, OvA 100 μg/ml
# [8] = OvA/Alum, 1.0 μg/kg per os, OvA 0 μg/ml
# [9] = OvA/Alum, 1.0 μg/kg per os, OvA 10 μg/ml
# [10] = OvA/Alum, 1.0 μg/kg per os, OvA 25 μg/ml
# [11] = OvA/Alum, 1.0 μg/kg per os, OvA 50 μg/ml
# [12] = OvA/Alum, 1.0 μg/kg per os, OvA 100 μg/ml
# [13] = OvA/Alum, 10.0 μg/kg per os, OvA 0 μg/ml
# [14] = OvA/Alum, 10.0 μg/kg per os, OvA 10 μg/ml
# [15] = OvA/Alum, 10.0 μg/kg per os, OvA 25 μg/ml
# [16] = OvA/Alum, 0.1 μg/kg i/p, OvA 10 μg/ml
# [17] = OvA/Alum, 0.1 μg/kg i/p, OvA 25 μg/ml
# [18] = OvA/Alum, 0.1 μg/kg i/p, OvA 50 μg/ml
# [19] = OvA/Alum, 0.1 μg/kg i/p, OvA 100 μg/ml
# [20] = OvA/Alum, 1.0 μg/kg i/p, OvA 25 μg/ml
# [21] = OvA/Alum, 1.0 μg/kg i/p, OvA 50 μg/ml
# [22] = OvA/Alum, 1.0 μg/kg i/p, OvA 100 μg/ml
compound,measurement,setting,value
"N[C@H](CCC(=O)N[C@@H](Cc1c[nH]c2ccccc12)C(=O)O)C(=O)O [SCV-07, γ-D-glutamyl-L-tryptophan]",Activity of phagocytosis %,neutrophils; [2],46.88 ± 4.92%
same,"Functional reserve, conv. units",neutrophils; [2],1.929 ± 0.225 conv. units
same,"Induced HCT-test, activity, %",neutrophils; [2],48.63 ± 4.62%
same,"Induced HCT-test, index, conv. units",neutrophils; [2],0.732 ± 0.08 conv. units
same,"Intensity of phagocytosis, conv. units",neutrophils; [2],1.44 ± 0.189 conv. units
same,"Lysosomal activity, conv. units",neutrophils; [2],198.7 ± 22.5 conv. units
same,Neutrophils %,neutrophils; [2],56.56 ± 2.07%
same,Neutrophils × 10^9/l,neutrophils; [2],3.403 ± 0.27 × 10^9/l
same,"Phagocytary number, conv. units",neutrophils; [2],2.92 ± 0.255 conv. units
same,"Spontaneous HCT-test, activity, %",neutrophils; [2],34.50 ± 5.62%
same,"Spontaneous HCT-test, index, conv.",neutrophils; [2],0.50 ± 0.093 conv.
same,spontaneous activity and intensity of neutrophils in the HCT reaction,"neutrophils; immunodeficient subjects with SCV-07 versus vaccine only and versus healthy, p<0.05",significantly lower
same,activities of neutrophils in the induced HCT test,"neutrophils; subjects who received SCV-07 versus vaccinated without immunomodulator, after vaccination, p<0.05",significantly higher
same,activity at 0.0001 mg/kg,[1]; [3],100%
same,activity at 0.0001 mg/kg,[1]; [4],124%
same,activity at 0.0001 mg/kg,[1]; [5],150%
same,activity at 0.0001 mg/kg,[1]; [6],150%
same,activity at 0.0001 mg/kg,[1]; [7],158%
same,activity at 0.001 mg/kg,[1]; [8],100%
same,activity at 0.001 mg/kg,[1]; [9],98.3%
same,activity at 0.001 mg/kg,[1]; [10],103%
same,activity at 0.001 mg/kg,[1]; [11],103%
same,activity at 0.001 mg/kg,[1]; [12],122%
same,activity at 0.01 mg/kg,[1]; [13],100%
same,activity at 0.01 mg/kg,[1]; [14],47.9%
same,activity at 0.01 mg/kg,[1]; [15],119%
same,activity at 0.01 mg/kg,"[1]; OvA/Alum, 10.0 μg/kg per os, OvA 50 μg/ml",119%
same,activity at 0.01 mg/kg,"[1]; OvA/Alum, 10.0 μg/kg per os, OvA 100 μg/ml",140%
same,activity at 0.0001 mg/kg,"[1]; OvA/FA, 0.1 μg/kg per os, OvA 0 μg/ml",100%
same,activity at 0.0001 mg/kg,"[1]; OvA/FA, 0.1 μg/kg per os, OvA 10 μg/ml",119%
same,activity at 0.0001 mg/kg,"[1]; OvA/FA, 0.1 μg/kg per os, OvA 25 μg/ml",121%
same,activity at 0.0001 mg/kg,"[1]; OvA/FA, 0.1 μg/kg per os, OvA 50 μg/ml",142%
same,activity at 0.0001 mg/kg,"[1]; OvA/FA, 0.1 μg/kg per os, OvA 100 μg/ml",136%
same,activity at 0.001 mg/kg,"[1]; OvA/FA, 1.0 μg/kg per os, OvA 0 μg/ml",100%
same,activity at 0.001 mg/kg,"[1]; OvA/FA, 1.0 μg/kg per os, OvA 10 μg/ml",128%
same,activity at 0.001 mg/kg,"[1]; OvA/FA, 1.0 μg/kg per os, OvA 25 μg/ml",87.3%
same,activity at 0.001 mg/kg,"[1]; OvA/FA, 1.0 μg/kg per os, OvA 50 μg/ml",116%
same,activity at 0.001 mg/kg,"[1]; OvA/FA, 1.0 μg/kg per os, OvA 100 μg/ml",113%
same,activity at 0.01 mg/kg,"[1]; OvA/FA, 10.0 μg/kg per os, OvA 0 μg/ml",100%
same,activity at 0.01 mg/kg,"[1]; OvA/FA, 10.0 μg/kg per os, OvA 10 μg/ml",83.7%
same,activity at 0.01 mg/kg,"[1]; OvA/FA, 10.0 μg/kg per os, OvA 25 μg/ml",66.2%
same,activity at 0.01 mg/kg,"[1]; OvA/FA, 10.0 μg/kg per os, OvA 50 μg/ml",75.9%
same,activity at 0.01 mg/kg,"[1]; OvA/FA, 10.0 μg/kg per os, OvA 100 μg/ml",74.8%
same,Production of IFN-γ by splenocytes,"[1]; OvA/Alum, 0.1 μg/kg i/p, OvA 0 μg/ml",9365 pg/mL
same,Production of IFN-γ by splenocytes,[1]; [16],8816 pg/mL
same,"Production of IFN-γ by splenocytes, % (% of control)",[1]; [16],94.1%
same,Production of IFN-γ by splenocytes,[1]; [17],8028 pg/mL
same,"Production of IFN-γ by splenocytes, % (% of control)",[1]; [17],85.7%
same,Production of IFN-γ by splenocytes,[1]; [18],8028 pg/mL
same,"Production of IFN-γ by splenocytes, % (% of control)",[1]; [18],85.7%
same,Production of IFN-γ by splenocytes,[1]; [19],8048 pg/mL
same,"Production of IFN-γ by splenocytes, % (% of control)",[1]; [19],85.9%
same,Production of IFN-γ by splenocytes,[1]; [3],4642 pg/mL
same,Production of IFN-γ by splenocytes,[1]; [4],5775 pg/mL
same,Production of IFN-γ by splenocytes,[1]; [5],6969 pg/mL
same,Production of IFN-γ by splenocytes,[1]; [6],6969 pg/mL
same,Production of IFN-γ by splenocytes,[1]; [7],7310 pg/mL
same,Production of IFN-γ by splenocytes,"[1]; OvA/Alum, 1.0 μg/kg i/p, OvA 0 μg/ml",7129 pg/mL
same,Production of IFN-γ by splenocytes,"[1]; OvA/Alum, 1.0 μg/kg i/p, OvA 10 μg/ml",9986 pg/mL
same,Production of IFN-γ by splenocytes,[1]; [20],7982 pg/mL
same,"Production of IFN-γ by splenocytes, % (% of control)",[1]; [20],112.0%
same,Production of IFN-γ by splenocytes,[1]; [21],7982 pg/mL
same,"Production of IFN-γ by splenocytes, % (% of control)",[1]; [21],112.0%
same,Production of IFN-γ by splenocytes,[1]; [22],8155 pg/mL
same,"Production of IFN-γ by splenocytes, % (% of control)",[1]; [22],114.4%
same,Production of IFN-γ by splenocytes,[1]; [8],5620 pg/mL
same,Production of IFN-γ by splenocytes,[1]; [9],5523 pg/mL
same,Production of IFN-γ by splenocytes,[1]; [10],5795 pg/mL
same,Production of IFN-γ by splenocytes,[1]; [11],5795 pg/mL
same,Production of IFN-γ by splenocytes,[1]; [12],6860 pg/mL
same,Production of IFN-γ by splenocytes,[1]; [13],4266 pg/mL
same,Production of IFN-γ by splenocytes,[1]; [14],2045 pg/mL
same,Production of IFN-γ by splenocytes,[1]; [15],5066 pg/mL
